# Source: patent US20250388565A1, “ESTROGEN RECEPTOR ALPHA DEGRADERS AND METHODS OF USE THEREOF” (Relay Therapeutics, Inc., priority 2022, published 2025)
# Biological target: T1, ERα protein (HiBiT-tagged) in ESR1_HiBiT KI MCF7 cells (Homo sapiens, UniProt P03372)
# T1 sequence (P03372 1-595): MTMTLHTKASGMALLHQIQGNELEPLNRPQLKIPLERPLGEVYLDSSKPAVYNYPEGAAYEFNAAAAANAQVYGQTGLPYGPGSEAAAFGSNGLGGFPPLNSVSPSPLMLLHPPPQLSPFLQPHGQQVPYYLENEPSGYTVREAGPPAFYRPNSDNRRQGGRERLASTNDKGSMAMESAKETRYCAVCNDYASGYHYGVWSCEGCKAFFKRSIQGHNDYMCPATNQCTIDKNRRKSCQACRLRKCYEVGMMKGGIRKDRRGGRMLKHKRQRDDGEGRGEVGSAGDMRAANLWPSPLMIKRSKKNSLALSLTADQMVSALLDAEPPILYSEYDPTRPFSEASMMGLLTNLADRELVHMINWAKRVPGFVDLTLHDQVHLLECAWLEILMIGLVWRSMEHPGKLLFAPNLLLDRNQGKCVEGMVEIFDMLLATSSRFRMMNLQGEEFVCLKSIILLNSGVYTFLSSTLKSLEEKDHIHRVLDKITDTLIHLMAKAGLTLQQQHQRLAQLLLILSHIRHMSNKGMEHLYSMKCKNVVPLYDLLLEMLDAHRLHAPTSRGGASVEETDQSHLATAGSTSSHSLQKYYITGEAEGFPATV
# Experiment: Nano Glo HiBiT Lytic Degradation Assay
# Format: cell-based
# Conditions: 6 hours with compound, 14-point dose response 1:3, bell-shape curve fit, half-maximal effect of first Hill model, read-out: MCF7 ESR1 HiBiT - (DC50)
# Experimental: Selected compounds of the present disclosure were tested in a Nano Glo HiBiT Lytic Degradation Assay to measure the level of ERα protein degradation in MCF7 cells.
# Cell culture: ESR1_HiBiT KI MCF7 cells were maintained in growth media without antibiotics. Cells were maintained in exponential growth phase, between 40% and 90% confluency.
# Cell seeding: Cells were counted using a Vi-Cell and seeded in a 384-well flat-bottom microplate (cell culture-treated) at 4000 cells/well in 25 μL of growth medium using a BioTek MultiFlo Multimode Dispenser. Plates were incubated for 24 h at 37° C., 5% CO2, >95% relative humidity.
# Compound preparation: Compounds were screened as 14-point dose response curves 1:3 dilutions. DMSO is used as the vehicle control and all wells were normalized to the same final DMSO concentration (0.1% v/v). Compounds were dosed using an Echo Acoustic Liquid Handler, 25 nL of 1000× (10 mM top concentration) DMSO stock/well. Cells were incubated with compounds for 6 hours at 37° C., 5% CO2, >95% relative humidity. Each compound was run in duplicate.
# Nano Glo HiBiT Lytic Degradation Assay: HiBiT-tagged ERα protein levels were quantified using a Nano Glo HiBiT Lytic Degradation Assay following the manufacturer's protocol. Briefly, the Nano-Glo® HiBiT Lytic Reagent was prepared by diluting the LgBiT Protein reagent (1:100) and the Nano-Glo® HiBiT Lytic Substrate (1:50) into Nano-Glo® HiBiT Lytic Buffer at room temperature. The 384-well microplate were equilibrated to room temperature and 25 μL of Nano-Glo® HiBiT Lytic Reagent was added to each well. Samples were mixed by placing the 384-well microplate on an orbital shaker for 10 minutes. Luminescence was measured using an EnVision 2105 Multimode Plate Reader.
# Data processing and analysis: Background signal (wells containing growth medium without cells) was subtracted from individual relative light units (RLU) values and the resulting values were normalized to the DMSO control well values. Dose responses were analyzed with Genedata Screener® using a bell-shape curve fit and the concentrations corresponding to the half-maximal effect of the first Hill model were used as DC50 values.
row,SMILES,DC50 [nM]
1,"O=C1CC[C@H](N2Cc3cc(N4CCN(CC5CCN(c6ccc([C@H]7c8ccc(O)cc8CC[C@@]78CCc7ccccc78)cc6)CC5)CC4)ccc3C2=O)C(=O)N1 (relative stereo) [Compound I-261, (S)-3-(5-(4-((1-(4-((1S*,1′R*)-6′-hydroxy-2,3,3′,4′-tetrahydro-1′H-spirofindene-1,2′-naphthalen]-1′-yl)phenyl)piperidin-4-yl)methyl)piperazin-1-yl)-1-oxoisoindolin-2-yl)piperidine-2,6-dione]",19
2,"O=C1CC[C@H](N2Cc3cc(N4CCN(CC5CCN(c6ccc([C@H]7c8ccc(C(=O)O)cc8CC[C@H]7c7ccccc7)cc6)CC5)CC4)ccc3C2=O)C(=O)N1 (single isomer, unassigned) [Compound I-1]",3
3,"O=C1CC[C@H](N2Cc3cc(N4CCN(CC5CCN(c6ccc([C@@H]7c8ccc(C(=O)O)cc8CC[C@@H]7c7ccccc7)cc6)CC5)CC4)ccc3C2=O)C(=O)N1 (single isomer, unassigned) [Compound I-2]",≥ 10000
4,"O=C1CCC(c2ccc(N3CCN(CCC4CCN(c5ccc([C@@H]6c7ccc(O)cc7CC[C@@H]6c6ccccc6)cc5)CC4)CC3)cc2)C(=O)N1 (single isomer, unassigned) [Compound I-8]",≥ 10000
5,"Cn1nccc1[C@H]1CCc2cc(O)ccc2[C@H]1c1ccc(N2CCC(CN3CCN(c4ccc5c(c4)CN([C@H]4CCC(=O)NC4=O)C5=O)CC3)CC2)cc1 (single isomer, unassigned) [Compound I-24]",≥ 10000
6,"Cn1nccc1[C@@H]1CCc2cc(O)ccc2[C@@H]1c1ccc(N2CCC(CN3CCN(c4ccc5c(c4)CN([C@H]4CCC(=O)NC4=O)C5=O)CC3)CC2)cc1 (single isomer, unassigned) [Compound I-25]",0.02
7,"Cn1ccc([C@H]2CCc3cc(O)ccc3[C@H]2c2ccc(N3CCC(CN4CCN(c5ccc6c(c5)CN([C@H]5CCC(=O)NC5=O)C6=O)CC4)CC3)cc2)n1 (single isomer, unassigned) [Compound I-28]",≥ 10000
8,"Cn1ccc([C@@H]2CCc3cc(O)ccc3[C@@H]2c2ccc(N3CCC(CN4CCN(c5ccc6c(c5)CN([C@H]5CCC(=O)NC5=O)C6=O)CC4)CC3)cc2)n1 (single isomer, unassigned) [Compound I-29]",0.14
9,"O=C1CC[C@H](N2Cc3cc(N4CCN(CC5CCN(c6ccc([C@@H]7c8ccc(O)cc8CO[C@@H]7c7ccc(C(F)(F)F)cc7)cc6)CC5)CC4)ccc3C2=O)C(=O)N1 (single isomer, unassigned) [Compound I-36]",80
10,"O=C1CCC(c2ccc(N3CCN(C4CCN(c5ccc([C@@H]6c7ccc(O)cc7CC[C@@H]6c6ccccc6)cc5)CC4)CC3)cc2)C(=O)N1 (single isomer, unassigned) [Compound I-40]",370
11,"O=C1CCC(c2ccc(N3CCN(C4CCN(c5ccc([C@H]6c7ccc(O)cc7CC[C@H]6c6ccccc6)cc5)CC4)CC3)cc2)C(=O)N1 (single isomer, unassigned) [Compound I-41]",370
12,"O=C1CCC(c2ccc(N3CCN(CCC4CCN(c5ccc([C@H]6c7ccc(O)cc7CC[C@H]6c6ccccc6)cc5)CC4)CC3)cc2)C(=O)N1 (single isomer, unassigned) [Compound I-42]",≥ 10000
13,"O=C1CC[C@H](N2Cc3cc(N4CCN(CC5CCN(c6ccc([C@H]7c8ccc9[nH]ncc9c8CC[C@H]7c7ccccc7)cc6)CC5)CC4)ccc3C2=O)C(=O)N1 (single isomer, unassigned) [Compound I-44]",7
14,"O=C1CC[C@@H](N2Cc3cc(N4CCC(CN5CCC(n6cc([C@@H]7c8ccc(O)cc8CC[C@@H]7c7ccccc7)cn6)CC5)CC4)ccc3C2=O)C(=O)N1 (single isomer, unassigned) [Compound I-48]",≥ 10000
15,"O=C1CCC(N2Cc3cc(N4CCN(CC5CCN(c6ccc([C@@H]7c8ccc(O)cc8CC[C@@H]7C7CCCC7)cc6)CC5)CC4)ccc3C2=O)C(=O)N1 (single isomer, unassigned) [Compound I-52]",9
